Measured values reported in patent US11311592B2, “Bauhinia extract and uses thereof” (Academia Sinica, priority 2015, dated 2022).

System: p62-RL-HEK cells
Test: Cell-based p62-Renilla luciferase reporter assay of autophagy activity
Set-up: species or system Human
Conditions: positive controls: 3-MA 5 μM, rapamycin 200 nM; 24 hr at 37° C.
Description: FIG. 3. Treatments with BVEE induces autophagy. A. GFP-LC3-HEK cells were treated with BVEE (50 μg/ml) at 37° C. for 24 h. An autophagy inducer, rapamycin, and an autophagy inhibitor, 3-MA, were included as controls. Clarified lysates containing equal amounts of proteins were resolved by SDS-PAGE and analyzed by Western blotting with anti-p62 (top panel), anti-LC3 (middle panel), and anti-GAPDH (bottom panel) antibodies. B. A stable cell line p62-RL-HEK that overexpresses Renilla luciferase-tagged p62 was treated with BVEE (50 μg/ml) at 37° C. for 24 h. Additional treatments with either rapamycin or 3-MA were included as controls. Renilla luciferase signal was determined by the addition of coelenterazine at equal volume to a final concentration of 5 μM. Luminescence emitted by DMSO-treated cells (Control) was referred to as 100% relative Renilla luciferase signal;
FIG. 12. The autophagy-inducing potency of extracts derived from B. variegate (BV) by using different solvents. The p62-RL-HEK cells were treated with or without B. variegate extract ([…]) at 37° C. for 24 h. Additional treatments with either rapamycin (RAP) or 3-MA were included as references. Renilla luciferase (Luc) activity was determined by the addition of coelenterazine to a final concentration of […]. Luminescence emitted by DMSO-treated cells (Control) was referred to as 100% relative Renilla luciferase signal. […]

## Cn1cnc(N)c2ncnc1-2 [3-MA, 3-methyladenine]
  luciferase signal of p62-RL-HEK cells: significant increase
